# Results as given in ChEMBL document CHEMBL1129761, “2-[(Alkylsulfonyl)oxy]-6-substituted-1H-isoindole-1,3(2H)-dione mechanism-based inhibitors of human leukocyte elastase” (Bioorg Med Chem Lett, 1996).
# Experiments:
# [1] = biological target: Chymotrypsinogen A (Bos taurus) (UniProt P00766); test: Compound was evaluated for the inhibition of Chymotrypsinogen
# [2] = biological target: T1, Neutrophil elastase (Homo sapiens) (UniProt P08246); test: Compound was evaluated for the inhibition of human leukocyte elastase (HLE).
# T1 sequence (whole entry): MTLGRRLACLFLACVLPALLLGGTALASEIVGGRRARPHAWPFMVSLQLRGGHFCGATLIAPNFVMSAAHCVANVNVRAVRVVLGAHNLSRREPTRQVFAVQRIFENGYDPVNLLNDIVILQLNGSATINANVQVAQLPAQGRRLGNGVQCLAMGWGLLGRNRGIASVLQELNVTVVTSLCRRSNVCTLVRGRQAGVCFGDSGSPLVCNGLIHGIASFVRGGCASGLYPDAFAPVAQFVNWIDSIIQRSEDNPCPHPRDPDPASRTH
# [3] = biological target: T2, Chymotrypsin-like elastase family member 2A (Sus scrofa) (UniProt P08419); test: Compound was evaluated for the inhibition of porcine pancreatic elastase (PPE).
# T2 sequence (whole entry): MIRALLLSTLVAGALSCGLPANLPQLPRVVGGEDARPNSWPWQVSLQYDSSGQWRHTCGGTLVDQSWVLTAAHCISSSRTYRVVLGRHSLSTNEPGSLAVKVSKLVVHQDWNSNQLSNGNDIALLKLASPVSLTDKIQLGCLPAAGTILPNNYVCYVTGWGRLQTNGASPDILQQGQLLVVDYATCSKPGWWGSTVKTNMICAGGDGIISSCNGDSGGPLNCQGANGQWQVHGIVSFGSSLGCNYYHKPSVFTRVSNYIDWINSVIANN
SMILES,k obs / 1 [1] [M⁻¹ s⁻¹],k obs / 1 [2] [M⁻¹ s⁻¹],k obs / 1 [3] [M⁻¹ s⁻¹]
Cc1ccc(S(=O)(=O)ON2C(=O)c3ccc(C)cc3C2=O)cc1,27000,58000,7400
CS(=O)(=O)ON1C(=O)c2ccccc2C1=O,2700,61000,6500
CC(C)S(=O)(=O)ON1C(=O)c2ccccc2C1=O,160000,63000,370

# Further lines, results first:
k obs / 1 [1] [M⁻¹ s⁻¹],k obs / 1 [2] [M⁻¹ s⁻¹],k obs / 1 [3] [M⁻¹ s⁻¹],SMILES
11000,82000,22000,CC(C)S(=O)(=O)ON1C(=O)c2ccc(N)cc2C1=O
12000,110000,24000,CS(=O)(=O)ON1C(=O)c2ccc(N)cc2C1=O
90000,78000,1400,Cc1ccc(S(=O)(=O)ON2C(=O)c3ccccc3C2=O)cc1
16000,30000,21000,Cc1ccc2c(c1)C(=O)N(OS(C)(=O)=O)C2=O
